Here are results for five molecules from US10555936B2, “Chemotherapeutic compositions and methods for treating human gliomas” (The Methodist Hospital, priority 2011, dated 2020).

Experiment [1] has as its system MAO-B. To be noted: previously-published work; cited from earlier work.
The subject of experiment [2] is BT-111 cells. Type of experiment: cell-based, human.
Experiment [3] relates to BT-111. Briefly: Cell death, Hoechst viability stain. Type of experiment: cell-based, human. Conditions: BT-111, high concentrations, 2 μM selegiline, 24 hrs.
Experiment [4] has as its system BT-111. The experiment can be described thus: Total cell protein mass, BCA/SDS method. Type of experiment: cell-based, human. Conditions: BT-111, with 2 μM selegiline, 24 hr.
The test system of experiment [5] is BT-115. Briefly: Cell death, Hoechst viability stain. The format is cell-based, human. To be noted: BT-115, high concentrations, 2 μM selegiline, 24 hrs.
Experiment [6] relates to BT-115. The experiment can be described thus: Total cell protein mass, BCA/SDS method. The format is cell-based, human. Conditions: BT-115, with 2 μM selegiline, 24 hr.
Experiment [7] has as its target T1, hMAO-A (Homo sapiens, UniProt P21397).
T1 sequence (P21397 1-527): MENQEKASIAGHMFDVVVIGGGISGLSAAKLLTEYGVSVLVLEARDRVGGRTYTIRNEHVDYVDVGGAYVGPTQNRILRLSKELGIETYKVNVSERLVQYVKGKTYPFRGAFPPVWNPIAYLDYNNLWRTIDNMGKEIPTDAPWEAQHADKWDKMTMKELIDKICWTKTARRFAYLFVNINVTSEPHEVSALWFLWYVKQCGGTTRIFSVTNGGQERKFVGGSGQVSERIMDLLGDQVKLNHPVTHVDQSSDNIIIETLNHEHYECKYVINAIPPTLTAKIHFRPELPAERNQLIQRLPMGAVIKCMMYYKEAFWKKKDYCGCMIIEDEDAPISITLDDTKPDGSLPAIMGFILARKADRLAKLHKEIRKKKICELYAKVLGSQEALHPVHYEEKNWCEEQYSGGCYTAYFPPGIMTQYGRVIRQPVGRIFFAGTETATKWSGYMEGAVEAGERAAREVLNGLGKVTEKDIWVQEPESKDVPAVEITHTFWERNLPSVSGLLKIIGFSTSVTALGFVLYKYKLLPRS
Conditions: Fierro and co-workers; cited from earlier work.

For the molecule “1-methyl-4-(3-methylfuran-yl)-1,2,3,6-tetrahydropyridine”, the MAO-B substrate quality entry in experiment [1] was “excellent MAO-B substrates”. On to `CN1CC=C(C2CCCCC2)CC1` [4-cyclohexyl-1-methyl-1,2,3,6-tetrahydropyridine], for which the MAO-B substrate quality result in experiment [1] is given as “excellent MAO-B substrates”. In the case of `C#CCN(C)[C@H](C)Cc1ccccc1` [Selegiline], the “effect on mitochondrial membrane potential” value in experiment [2] is recorded as “no effect”. As to `CCc1c2c(nc3ccc(OCCCN)cc13)-c1cc3c(c(=O)n1C2)COC(=O)[C@]3(O)CC` [APE-SN38, 7-ethyl-10-(3-aminprop)-oxy-camptothecine], the “cell death on co-incubation with selegiline” value in experiment [3] and in experiment [5] was “could be arrested” in each case. For the same molecule, the protection by selegiline entry in experiment [4] and in experiment [6] was “almost complete protection” each time. As for `CSc1ccc(CC(C)N)cc1` (centres unmarked) [MTA], the “times better at inhibiting hMAO-A than hMAO-B” value in experiment [7] is above 1000 times.
